In PMC4669708 (Cell Death & Disease, 2015):

Assays:
Experiment in all cases: c-ponatinib pulldown LC-MS/MS
Assay type in all cases: binding
[1] = biological target: ABL2 (Homo sapiens, UniProt P42684)
Summary of the method: (§1)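 Read-out: interaction P-value combining Mascot scores, Phenyx scores and spectral counts (Fisher's method), plus fold reduction of median spectral counts on free-compound competition. Proteins were enriched from 10 mg cell lysate on c-ponatinib beads, then trypsin-digested for LC-MS/MS.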

[2] = biological target: T1, CCT2 (Homo sapiens, UniProt P78371)
T1 sequence (P78371 1-535): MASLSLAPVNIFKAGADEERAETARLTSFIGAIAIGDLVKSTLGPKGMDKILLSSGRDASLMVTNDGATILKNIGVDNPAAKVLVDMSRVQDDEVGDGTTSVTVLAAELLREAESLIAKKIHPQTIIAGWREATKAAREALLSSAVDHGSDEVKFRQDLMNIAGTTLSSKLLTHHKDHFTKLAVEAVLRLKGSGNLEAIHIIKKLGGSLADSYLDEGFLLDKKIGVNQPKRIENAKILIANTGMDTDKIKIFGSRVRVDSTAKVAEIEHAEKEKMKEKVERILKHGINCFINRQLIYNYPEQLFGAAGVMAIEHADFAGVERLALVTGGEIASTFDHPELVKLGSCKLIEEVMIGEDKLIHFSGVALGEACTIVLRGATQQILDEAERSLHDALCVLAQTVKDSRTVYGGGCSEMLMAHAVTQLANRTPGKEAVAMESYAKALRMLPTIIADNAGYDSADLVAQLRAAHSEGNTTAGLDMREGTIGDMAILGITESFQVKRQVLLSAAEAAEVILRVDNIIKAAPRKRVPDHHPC
Summary of the method: as §1

[3] = biological target: MAPKAPK3 (Homo sapiens, UniProt Q16644)
Summary of the method: as §1

[4] = biological target: T2, RIPK1 (Homo sapiens, UniProt Q13546)
T2 sequence (Q13546 1-671): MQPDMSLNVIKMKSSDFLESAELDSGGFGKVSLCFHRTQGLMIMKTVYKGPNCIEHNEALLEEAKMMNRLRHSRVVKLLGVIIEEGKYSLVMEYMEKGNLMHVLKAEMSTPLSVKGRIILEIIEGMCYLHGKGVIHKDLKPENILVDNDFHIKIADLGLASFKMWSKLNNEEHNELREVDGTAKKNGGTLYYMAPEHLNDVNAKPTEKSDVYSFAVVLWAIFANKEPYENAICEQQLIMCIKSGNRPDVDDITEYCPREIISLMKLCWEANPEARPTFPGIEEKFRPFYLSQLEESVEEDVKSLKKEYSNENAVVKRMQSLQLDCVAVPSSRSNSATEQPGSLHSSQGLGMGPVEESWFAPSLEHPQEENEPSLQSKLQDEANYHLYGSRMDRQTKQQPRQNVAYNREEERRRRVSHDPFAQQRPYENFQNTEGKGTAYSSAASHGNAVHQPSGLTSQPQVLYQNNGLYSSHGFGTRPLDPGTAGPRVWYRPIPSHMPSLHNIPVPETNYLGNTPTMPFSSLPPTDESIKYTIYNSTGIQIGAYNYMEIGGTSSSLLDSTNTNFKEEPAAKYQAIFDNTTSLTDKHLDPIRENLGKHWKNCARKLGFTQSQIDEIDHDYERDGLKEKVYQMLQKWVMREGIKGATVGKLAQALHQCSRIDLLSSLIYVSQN
Summary of the method: as §1

[5] = biological target: TPM4 (Homo sapiens, UniProt P67936)
Summary of the method: as §1

Chain of TPM4 (P67936 whole entry): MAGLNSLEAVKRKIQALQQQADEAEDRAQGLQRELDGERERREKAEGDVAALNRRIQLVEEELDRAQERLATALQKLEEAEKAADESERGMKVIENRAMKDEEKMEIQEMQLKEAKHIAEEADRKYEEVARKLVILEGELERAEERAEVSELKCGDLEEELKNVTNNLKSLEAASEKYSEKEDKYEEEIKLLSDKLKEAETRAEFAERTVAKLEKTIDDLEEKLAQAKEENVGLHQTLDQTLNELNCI
Chain of MAPKAPK3 (Q16644 whole entry): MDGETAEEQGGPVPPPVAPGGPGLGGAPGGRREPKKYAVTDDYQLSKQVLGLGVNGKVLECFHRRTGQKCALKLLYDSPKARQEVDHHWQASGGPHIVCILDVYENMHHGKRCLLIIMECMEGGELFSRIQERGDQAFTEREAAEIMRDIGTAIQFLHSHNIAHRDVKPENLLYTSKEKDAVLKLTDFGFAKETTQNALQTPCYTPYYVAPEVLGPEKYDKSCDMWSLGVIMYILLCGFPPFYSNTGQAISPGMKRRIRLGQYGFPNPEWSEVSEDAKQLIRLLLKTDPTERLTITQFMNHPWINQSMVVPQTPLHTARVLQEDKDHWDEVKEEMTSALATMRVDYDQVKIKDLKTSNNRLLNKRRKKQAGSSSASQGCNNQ
Chain of ABL2 (P42684 whole entry): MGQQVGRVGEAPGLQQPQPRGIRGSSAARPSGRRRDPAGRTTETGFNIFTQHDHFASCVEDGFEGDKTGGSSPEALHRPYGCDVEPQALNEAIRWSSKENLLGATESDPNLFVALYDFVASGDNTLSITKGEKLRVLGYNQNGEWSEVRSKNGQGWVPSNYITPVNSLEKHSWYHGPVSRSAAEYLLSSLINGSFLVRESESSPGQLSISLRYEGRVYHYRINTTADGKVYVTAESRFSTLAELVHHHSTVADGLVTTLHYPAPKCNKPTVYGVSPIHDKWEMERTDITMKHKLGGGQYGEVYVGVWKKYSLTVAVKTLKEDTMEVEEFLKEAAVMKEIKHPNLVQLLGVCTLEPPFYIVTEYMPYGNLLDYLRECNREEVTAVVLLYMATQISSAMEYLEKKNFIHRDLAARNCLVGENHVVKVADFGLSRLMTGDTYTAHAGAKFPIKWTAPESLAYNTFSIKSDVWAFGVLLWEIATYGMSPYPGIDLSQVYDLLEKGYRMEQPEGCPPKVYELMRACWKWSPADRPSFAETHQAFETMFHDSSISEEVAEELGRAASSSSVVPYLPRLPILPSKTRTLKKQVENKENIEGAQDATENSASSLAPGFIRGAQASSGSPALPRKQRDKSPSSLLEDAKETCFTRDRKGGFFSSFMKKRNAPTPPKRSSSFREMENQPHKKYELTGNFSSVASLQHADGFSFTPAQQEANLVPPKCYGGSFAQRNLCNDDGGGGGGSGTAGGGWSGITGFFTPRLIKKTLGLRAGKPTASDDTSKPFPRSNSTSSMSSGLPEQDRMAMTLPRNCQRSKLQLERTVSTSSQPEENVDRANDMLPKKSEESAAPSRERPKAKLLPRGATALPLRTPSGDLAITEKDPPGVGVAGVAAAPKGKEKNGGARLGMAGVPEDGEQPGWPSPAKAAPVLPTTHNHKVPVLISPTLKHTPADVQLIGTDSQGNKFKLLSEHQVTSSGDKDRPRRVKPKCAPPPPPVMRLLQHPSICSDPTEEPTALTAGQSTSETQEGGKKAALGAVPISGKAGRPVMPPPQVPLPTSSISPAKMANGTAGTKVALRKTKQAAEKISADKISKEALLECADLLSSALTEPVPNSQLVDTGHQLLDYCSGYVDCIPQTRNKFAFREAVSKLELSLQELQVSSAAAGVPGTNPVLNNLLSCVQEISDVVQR

## Cc1ccc(C(=O)Nc2ccc(CN3CCN(CCCN)CC3)c(C(F)(F)F)c2)cc1C#Cc1cnc2cccnn12 [c-ponatinib]
[1]; + free ponatinib
  Av. SC comp.: 0
  Total SC comp.: 0
[1]; no competitor
  Av. SC: 17.25
  Total SC: 69
[2]; + free ponatinib
  Av. SC comp.: 0
  Total SC comp.: 0
[2]; no competitor
  Av. SC: 3.5
  Total SC: 14
[3]; + free ponatinib
  Av. SC comp.: 0
  Total SC comp.: 0
[3]; no competitor
  Av. SC: 10.5
  Total SC: 42
[4]; + free ponatinib
  Av. SC comp.: 0
  Total SC comp.: 0
[4]; no competitor
  Av. SC: 1.5
  Total SC: 6
[5]; + free ponatinib
  Av. SC comp.: 0.25
  Total SC comp.: 1
[5]; no competitor
  Av. SC: 3.5
  Total SC: 14
